Measurements as given in patent US4772619A, “[(1H-benzimidazol-2-ylsulfinyl)methyl]-2-pyridinamines” (G. D. Searle & Co., priority 1986, dated 1988).

Experiments:
[1] = tested on: gastric acid secretion; test: Inhibition of Gastric Acid Secretion in Gastric Fistula Beagle Dogs; type: in vivo; settings: 3 mg/kg dose, i.v.; histamine-stimulated, four-hour period
From the text: Inhibition of Gastric Acid Secretion in Gastric Fistula Beagle Dogs
Adult female beagle dogs weighing 6 to 11 kilograms obtained from Laboratory Research Enterprises (Kalamazoo, Mich.) or from Hazelton Research Animals (Cumberland, Va.) were surgically implanted with a simple Thomas-type gastric cannula. After recovery from surgery, the dogs were trained to stand quietly, fully conscious, in Pavlov-type dog restraining slings and were acclimated to intravenous infusion of histamine dihydrochloride. During the course of these studies, no dog was used more than once a week. All dogs were deprived of food, but not water, for 18 hours prior to each assay. […] The volume of gastric secretions, collected in plastic bottles affixed to the cannula, were measured to the nearest 0.1 ml at 30 minute intervals. […]
Intravenous dosing: Following a 30-minute basal secretion period, test compounds were administered intravenously (i.v.). […] The pH and titratable acidity were determined for samples from each collection period. […]
Data from each protocol were analyzed for three gastric sample variables: volume of gastric juice, acid concentration, and total acid output. Percent inhibition for each four-hour experimental period was determined for each parameter by comparison with 3 to 4 controls in which only food was given. Estimates of ED50 's were determined from dose response curves.

[2] = molecular target: T1, (H^+ +K^+)-ATPase (Canis lupus familiaris, UniProt P50996); test: Inhibition of (H^+ +K^+)-ATPase from Canine Gastric Mucosa; type: biochemical, canine (mongrel dogs); settings: canine gastric mucosa microsomes, pH 6.0, 30 min preincubation with compound at 37°
T1 construct: from tissue; host or cells: microsomes from glandular gastric mucosa (antral and cardiac regions removed) of mongrel dogs, lyophilized
T1 sequence (P50996 whole entry): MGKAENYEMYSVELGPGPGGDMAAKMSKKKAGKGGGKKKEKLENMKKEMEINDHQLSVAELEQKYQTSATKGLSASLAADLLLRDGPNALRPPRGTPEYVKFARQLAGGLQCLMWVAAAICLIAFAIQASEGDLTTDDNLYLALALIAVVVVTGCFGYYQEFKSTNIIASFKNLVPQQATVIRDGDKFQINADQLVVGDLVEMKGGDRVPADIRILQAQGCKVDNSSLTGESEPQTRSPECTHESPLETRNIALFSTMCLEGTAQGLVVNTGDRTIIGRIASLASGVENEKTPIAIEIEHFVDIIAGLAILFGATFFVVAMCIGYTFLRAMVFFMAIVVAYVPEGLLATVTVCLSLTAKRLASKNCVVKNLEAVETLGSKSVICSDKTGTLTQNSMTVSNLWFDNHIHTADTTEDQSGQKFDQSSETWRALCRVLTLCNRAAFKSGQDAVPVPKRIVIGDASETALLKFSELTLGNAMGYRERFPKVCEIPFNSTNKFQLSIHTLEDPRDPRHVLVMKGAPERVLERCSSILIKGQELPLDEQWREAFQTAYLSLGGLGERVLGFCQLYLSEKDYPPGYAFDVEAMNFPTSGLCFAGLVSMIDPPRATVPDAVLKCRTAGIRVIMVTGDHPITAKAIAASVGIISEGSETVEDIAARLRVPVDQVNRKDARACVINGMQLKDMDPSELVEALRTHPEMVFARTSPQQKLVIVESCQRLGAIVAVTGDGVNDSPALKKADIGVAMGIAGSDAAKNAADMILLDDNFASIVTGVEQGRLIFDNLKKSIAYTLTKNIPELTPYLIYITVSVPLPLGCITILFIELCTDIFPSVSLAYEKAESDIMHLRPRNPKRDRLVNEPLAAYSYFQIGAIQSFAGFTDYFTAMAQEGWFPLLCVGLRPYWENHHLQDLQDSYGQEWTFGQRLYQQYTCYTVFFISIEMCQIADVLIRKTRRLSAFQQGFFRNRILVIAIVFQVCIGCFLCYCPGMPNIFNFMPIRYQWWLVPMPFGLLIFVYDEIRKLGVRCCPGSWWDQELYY
T1 sequence (P33704 whole entry partner): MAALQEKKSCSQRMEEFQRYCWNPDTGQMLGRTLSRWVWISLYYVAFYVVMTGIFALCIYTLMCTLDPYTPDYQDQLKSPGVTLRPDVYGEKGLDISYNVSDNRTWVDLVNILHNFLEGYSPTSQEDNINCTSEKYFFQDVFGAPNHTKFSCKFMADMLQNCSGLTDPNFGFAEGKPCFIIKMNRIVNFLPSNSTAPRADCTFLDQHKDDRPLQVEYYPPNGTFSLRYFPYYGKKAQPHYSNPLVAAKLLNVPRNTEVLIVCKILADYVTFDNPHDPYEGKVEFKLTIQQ
Experimental: Mongrel dogs weighing 15 to 25 kilograms were fasted for twenty-four hours, with water provided ad libitum. The animals were anesthetized with pentobarbital and the stomachs were removed. Subsequent tissue manipulations and subcellular fractionations were performed at 0° to 4° C. After the stomachs were cut open and rinsed with tap water, the antral and cardiac regions were removed and the remaining tissue was rinsed three times in saline. The glandular mucosa was removed mechanically, chopped finely in a medium containing 10 mM Tris hydrochloride (pH 7.4) and 250 mM sucrose, and homogenized. The homogenate was centrifuged at 20,000xg for twenty minutes and the pellet discarded. The supernatant was then centrifuged at 150,000xg for ninety minutes and the supernatant discarded. […]
(H^+ +K^+)-ATPase activity for each test compound was determined, in duplicate, by measuring the release of inorganic phosphate, which was assayed according to the method of J. ChandraRajan and L. Klein. […] At least fifteen minutes later, the optical absorbance at 870 nm (which was proportional to inorganic phosphate concentration up to 100 nmoles per tube, as determined by a standard curve) was obtained. […]
(H^+ +K^+)-ATPase activity is represented by the difference between the measured activities in the presence of potassium ion (K^+ -stimulated) and in the absence of potassium ion (basal).

Nc1ncccc1C[S+]([O-])c1nc2ccccc2[nH]1.O (centres unmarked) [Example 3, 3-[(1H-benzimidazol-2-ylsulfinyl)methyl]-2-pyridinamine hydrate]
Gastric-Fistula Beagle % Inhibition [1]: 41%
IC50 [2]: 100 µM
